Data published in US20150017665A1, “Peptides and Methods for Detecting MPO-ANCA” (The University of North Carolina at Chapel Hill, priority 2012, published 2015).

Tests used:
MPO-ANCA = experiment: Epitope excision MALDI-TOF/TOF MS of patient and healthy Ig with native MPO; format: binding; design: key: HC: Healthy control; Active disease; Remission; settings: human Ig
From the text: Total immunoglobulin (IgG) was purified from sera using protein A/G PLUS-Agarose Reagent according to commercial protocol (Santa Cruz Biotechnology). Purified IgG was immobilized on CNBr-activated Sepharose 4B (GE Healthcare) in compact reaction columns (CRC, USB Corporation) and exposed to native MPO protein (MPO, Elastin Products Co, Inc) followed by digestion with sequencing grade TPCK-treated trypsin (Worthington). MPO-peptides remaining bound to IgG after digestion were eluted with 0.1% trifluoro acetic acid and analyzed on a 4800 Plus Matrix-Assisted Laser Desorption Ionization Time of Flight Mass Spectrometry (MALDI TOF/TOF MS/MS) in conjunction with ProteinPilot software (AB SCIEX).
To identify epitopes of low titer autoantibodies, ^18O labeling (Mirza et al., J. Proteome Res. 7:3042 (2008)) was used to differentiate between the signal and the noise in the MS and MSMS spectra using the 4 Da shifts between the corresponding spectra of labeled and non-labeled peptides. Mass spectrometry analysis for epitopes recognized by MPO autoantibodies from healthy individuals, and for detection of low ANCA titers in remission samples required the use of isotope H2^18O to increase sensitivity (Cambridge Isotope Laboratories). Samples from healthy individuals (n=10) and MPO-ANCA patients in clinical remission (n=35) were processed in the presence of H2^18O. Incorporation of H2^18O on the carboxyl terminus of each proteolytic fragment of MPO during tryptic digestion, trypsin buffer was made with the isotope H2^18O as a diluent.
MPO-ANCA positive patients (n=45) from the University of North Carolina cohort (UNC) were analyzed in the initial studies. Demographics of the cohort (Table 2) indicate a predominantly Caucasian group. Approximately 40% are diagnosed with microscopic polyangiitis (MPA), 40% with renal-limited disease and 20% are diagnosed with granulomatosis with polyangiitis (GPA). To compare epitope specificities related to disease activity, longitudinal samples were analyzed to include active disease (n=52) and remission (n=35) from the UNC cohort (Tables 3 and 4). Ten healthy subjects were included in the analyses. Purified immunoglobulin (Ig) from sera samples was subjected to analysis by epitope excision MALDI-TOF/TOF mass spectrometry (depicted in FIG. 3A) to identify epitope profiles of autoantibodies reactive with MPO. In order to epitope map low titer anti-MPO antibodies from healthy subjects and from patients in disease remission, an approach was designed using the ^16O-to-^18O exchange technique, an adaptation of a proteomics-based quantification method (Mirza et al., J. Proteome Res. 7:3042 (2008)). Incorporation of H2^18O on the carboxyl termini of proteolytic fragments produces a 4 Da mass shift in the MS spectra, decipherable from background noise. MPO epitopes unique to Ig from patients with active disease were designated ‘exclusive to active disease’; epitopes identified in remission samples were designated ‘persistent during remission’; and those present in samples from healthy subjects were designated asymptomatic or ‘natural’.

[1] = test system: anti-MPO antibodies of immunized DR2 Tg mice; experiment: Epitope excision MS of IgG from immunized DR2 Tg mice with recombinant mouse MPO; format: binding; settings: DR2 Tg mice immunized with MPO aa442-460
Method: Mass spectrometry analysis of ANCA-negative IgG and mouse IgG samples were conducted as above. With the exception of protein substrate, immobilized ANCA-negative IgG were exposed to whole leukocyte lysate preparation from a healthy donor and mouse IgG to recombinant mouse MPO (R&D Systems).
As HLA-MHC II help shape the B and T cell repertoires, and consequently the response to foreign and self-antigens, we wanted to define the epitope specificity of the anti-MPO autoantibodies that could be induced experimentally using DR2 Tg mice. In this way, we could assess development of the anti-MPO antibody response after immunization of a single epitope in the context of a human MHC II. IgG from sera of immunized mice was profiled for anti-MPO epitope specificity using epitope excision MS. DR2 Tg mice developed antibodies targeting the human B cell epitope aa447-459 which is within a conserved region of both murine and human MPO. Unpredictably, immunized DR2 Tg mice initiated a polyclonal response producing autoantibodies against the entire MPO molecule. The epitope profile was astonishingly similar to that of the MPO-ANCA human profile (Table 6), indicative of the critical nature of this epitope.

| Substance | Found in samples: Healthy control, Active disease, or Remission, (HC, A, R) (MPO-ANCA; Table 1) | Found in samples: Healthy control, Active disease, or Remission, (HC, A, R) (MPO-ANCA; Table 6) | Epitopes found in immunized mice [1] |
| --- | --- | --- | --- |
| DHGLPGYNAWR (listed as Homo sapiens) [aa593-603] | A, R, HC | A, R, HC | DHGLPGYNAWR |
| FCGLPQPETVGQLGT (listed as Homo sapiens) [aa605-622] | A | A | – |
| FPTDQLTPDQER (listed as Homo sapiens) [aa237-248] | A, R, HC | A, R, HC | – |
| FQDNGR (listed as Homo sapiens) [aa369-374] | A | A | – |
| FWWENEGVFSMQQR (listed as Homo sapiens) [aa678-691] | A, R, HC | A, R, HC | – |
| IANVFTNAFR (listed as Homo sapiens) [aa490-499] | A | A | IANVFTNAFR |
| IGLDLPALNMQR (listed as Homo sapiens) [aa579-590] | A, R, HC | A, R, HC | IGLDLPALNMQR |
| IPCFLAGDTR (listed as Homo sapiens) [aa396-405] | R | R | IPCFLAGDMR |
| KYLPTYR (listed as Homo sapiens) [aa474-480] | A ,R | A, R | – |
| LFEQVMR (listed as Homo sapiens) [aa572-578] | A, R, HC | A, R, HC | LFEQVMR |
| LYQEAR (listed as Homo sapiens) [aa442-447] | A | A | – |
| NGFPVALAR (listed as Homo sapiens) [aa220-228] | A | A | – |
| NNIFMSNTYPR (listed as Homo sapiens) [aa715-725] | A | A | NNIFMSNTYPR |
| NQINALTSFVDASMV (listed as Homo sapiens) [aa328-351] | A | A | – |
| QALAQISLPR (listed as Homo sapiens) [aa692-701] | A ,R | A, R | – |
| QNQIAVDEIR (listed as Homo sapiens) [aa560-571] | A, R | A, R | – |
| RDYLPLVLGPTAMR (listed as Homo sapiens) [aa460-473] | A, R, HC | A, R, HC | – |
| VGPLLACI (listed as Homo sapiens) [aa657-664] | A | A | – |
| WDGER (listed as Homo sapiens) [aa437-441] | A, R | A, R | – |
| WLPAEYEDGFSLPYG (listed as Homo sapiens) [aa198-219] | A | A | – |
